Several values for one entry are separate records, joined by “and”; a condition that tells them apart may be missing. Equal values may be shown once. Entries after “also recorded” stand apart in the source; their conditions may differ.
Assays:
[1] = system: VC I-II RNA (tandem type I and type II glycine aptamers, VC1422 gene); experiment: In-line probing of VC I-II RNA; format: binding, Vibrio cholerae; conditions: for structural modulation (change in pattern of spontaneous cleavage) of VC I-II: ligand at 1 mM
Protocol: In-line probing of the VC I-II construct (FIG. 1B), derived from the VC1422 gene from V. cholerae, was carried out with trace amounts of 5′ ^32P-labeled RNA using methods that are similar to those described elsewhere in Nahvi et al., Chem. Biol. 9, 1043 (2002), and Winkler et al., Nature 419, 952 (2002). RNAs were prepared by transcription from the appropriate DNA template carrying a T7 RNA polymerase promoter, which was generated by PCR from V. cholerae (C6706-st2) genomic DNA using the primers 5′-[sequence]-[sequence] […] The underlined nucleotides identify sequences corresponding to the promoter for T7 RNA polymerase.
In a typical in line probing assay, ˜15 nM of labeled RNA is incubated in buffer (20 mM MgCl2, 50 mM Tris, pH 8.3 at 25° C., 100 mM KCl) in the absence or presence of ligand for 40 hrs at 23° C. After incubation, spontaneously cleaved products were separated using 10% denaturing PAGE and were visualized and quantitated using a PhosphorImager (Molecular Dynamics).
Lowercase letters in FIG. 1B and FIG. 8A identify nucleotides that were added to the construct to permit efficient transcription in vitro using RiboMAX transcription (Promega). For the data presented in FIG. 5, fraction bound equals 1 minus the normalized fraction cleaved in the in-line probing assay at U207-C208 for VC II and U74 for VC I-II.
Curves for the absence of cooperativity (blue curve, n=1) and presence of perfect cooperativity at two binding sites (orange curve, n=2) are depicted. […] The fraction of RNA cleaved at four regions in both RNA constructs was determined by in-line probing. The amount of cleavage was normalized to range from 0 to 1 using the minimum and maximum amounts cleaved for each region.

VC II RNA = experiment: Equilibrium dialysis with 3H-glycine, VC II RNA; format: binding, Vibrio cholerae; conditions: for restoration of equal distribution of 3H-glycine by unlabeled competitor: VC II 100 μM, excess (1 mM) unlabeled competitor after preequilibration
Protocol: (§1) Methods used for equilibrium dialysis were similar to those described in Mandal et al., Cell 113, 577 (2003). Specifically, equilibrium dialysis assays were conducted using a DispoEquilibrium Dialyzer (Harvard Biosciences), wherein chamber a and b are separated by a 5,000 MWCO membrane. […] Chamber b contained VC II or VC I-II RNA transcripts at 100 μM concentration suspended in the same buffer. Equilibrations were allowed to proceed for 10 hrs at 23° C. Subsequently 5 μL of sample was drawn from each chamber and quantitated by liquid scintillation counting. […] For both RNAs, experiments i-iii (FIG. 4B) were conducted by first pre-equilibrating the chambers (left data point), and then adding unlabeled competitor as indicated followed by a second equilibration (right data point). RNAs were prepared by in vitro transcription using the appropriate PCR DNA templates as described above.
(§2) Other notations are the same as those described for FIG. 1C.

VC I-II RNA = experiment: Equilibrium dialysis with 3H-glycine, VC I-II RNA; format: binding, Vibrio cholerae; conditions: for restoration of equal distribution of 3H-glycine by unlabeled competitor: VC I-II 100 μM, excess (1 mM) unlabeled competitor after preequilibration
Protocol: as §1, §2

[2] = system: gcvT 5'-UTR glycine riboswitch; experiment: Single-round in vitro transcription termination assay; format: biochemical, Bacillus subtilis; conditions: for effect on production of full-length RNA transcripts: single-round in vitro transcription
Protocol: Transcription termination assays were conducted as described previously (Sudarsan et al., Genes Dev. 17, 2688 (2003); Landick et al., Methods Enzymol. 274, 334 (1996)).
Transcription assays were performed using a method adapted from that described earlier (Edelstein, Annu. Rev. Biochem. 44, 209 (1975)). […] DNA templates encompassing nucleotides −406 to +7 relative to the translation start site for the gcvT operon in B. subtilis were used. Transcription assays included 20 mM Tris-HCl (pH 8.0 at 23° C.), 20 mM NaCl, 14 mM MgCl2, 0.1 mM EDTA, 0.01 mg/mL BSA, and 1% v/v glycerol. Each reaction (10 μL) contained 1 pmole of template DNA and 9 U E. coli RNA polymerase (Epicenter) and was conducted with the type and concentration of target molecule as indicated for each experiment. Transcription was initiated by the addition of the dinucleotide ApA (135 μM), GTP and UTP (2.5 μM each), ATP (1 μM), and [α-^32P]-ATP (4_Ci). After 5 min incubation at 37° C., 50 μM of each NTP was added along with 0.1 mg/mL heparin to prevent re-initiation by RNA polymerase. Transcription products generated after a 10 minute incubation were separated by denaturing 6% PAGE and visualized by using a PhosphorImager. […] Single-round transcription assays were conducted as described for FIG. 9A. […] Single-round transcription assays were conducted as described for FIG. 9A with 50 μM rNTPs.

[3] = system: wild-type gcvT IGR fused to β-galactosidase reporter gene; conditions: amino acid present in growth medium
From the text: Specifically, nucleotides −429 to +7 relative to the B. subtilis gcvT translation start site of the first open reading frame of the gcvT operon was PCR amplified as an EcoRI-BamHI fragment from B. subtilis strain 1A2 (Bacillus Genetic Stock Center, Columbus, Ohio). The wild type construct was cloned into pDG1661 at a site directly upstream of the lacZ reporter gene. […] The IGR used for this study (FIG. 8A) differed in sequence at three nucleotides (151-153, TTT to AAA) relative to the genomic database. Plasmids generated were integrated into the amyE locus of strain 1A2. Transformants were selected for chloramphenicol (5 μg/ml) resistance and screened for sensitivity to spectinomycin (100 μg/ml). Cells were grown in defined media (0.5% w/v glucose, 2 g/L (NH4)2SO4, 25 g/L K2HPO4-3H2O, 6 g/L KH2PO4, 1 g/L sodium citrate, 0.2 g/L MgSO4-7H2O, 2 μM MnCl2, 15 mM glutamate, and 5 mg/L chloramphenicol) to an A595 of 0.1, pelleted, and resuspended in minimal media supplemented with 500 μg/L of amino acid as indicated for each experiment. Cultures were incubated for an additional 3 hr and β-galactosidase assays were performed as described previously (Miller, A Short Course in Bacterial Genetics (Cold Spring Harbor Laboratory Press, Cold Spring Harbor, N.Y., 1992)). Miller units plotted are the average of six values (three assays conducted in duplicate).

[4] = system: VC II RNA (type II glycine aptamer alone); experiment: In-line probing of VC II RNA; format: binding, Vibrio cholerae; conditions: for EC50: in-line probing, read-out: concentration of ligand needed to cause half-maximal structure modulation of VC II
[5] = system: variant VC I-II construct wherein aptamer II has been mutated; conditions: relative to wild-type VC I-II

Row | Compound | structural modulation (change in pattern of spontaneous cleavage) of VC I-II [1] | restoration of equal distribution of 3H-glycine by unlabeled competitor (VC II RNA) | restoration of equal distribution of 3H-glycine by unlabeled competitor (VC I-II RNA) | effect on production of full-length RNA transcripts [2] | EC50 [4] | further results
1 | C[C@H](N)C(=O)O [L-alanine] | did not induce change | failed to restore equal distribution | failed to restore equal distribution | failed to trigger an increase |  | expression of β-galactosidase reporter [3]: low amount of gene expression
2 | N[C@@H](CO)C(=O)O [L-serine] |  | failed to restore equal distribution | failed to restore equal distribution | rejected; also recorded: failed to trigger an increase |  | 
3 | NCC(=O)NO [glycine hydroxamate] |  |  |  |  | ~1000 µM | 
4 | COC(=O)CN [glycine methyl ester] | measurable structural modulation |  |  |  | ~100 µM | 
5 | CC(C)(C)OC(=O)CN [glycine tertiary butyl ester, glycine tert-butyl ester] | measurable structural modulation |  |  |  | ~1000 µM | 
6 | NCC(=O)O [glycine] | caused changes in the pattern of spontaneous cleavage | restored an equal distribution | restored an equal distribution | substantial increase in the amount of full-length RNA transcript | ~10 µM | increase in glycine concentration for change from 10% to 90% ligand-bound RNA ([1]; VC I-II): 10 fold; Hill coefficient n ([1]; VC I-II, best fit of four regions, maximum for two sites is 2): 1.64 and 1.64±0.07; Kd ([1]; VC I-II, best fit of four regions, read-out: constant K of Hill equation): 40 ± 1 µM; Hill constant n ([4]; VC II, best fit of four regions): 0.97±0.04; Kd ([4]; VC II, best fit of four regions, read-out: constant K of Hill equation): 24 ± 12 µM; increase in glycine concentration for change from 10% to 90% ligand-bound RNA ([4]; single aptamer RNA, printed as VC I RNA): 100 fold; equivalents of glycine bound by RNA (VC II RNA; three equivalents of glycine versus one equivalent of VC II RNA (100 μM), 1 expected): 0.8 equivalents; increase in the amount of glycine bound by RNA (VC I-II RNA; one equivalent of VC I-II RNA (two aptamer equivalents) versus VC II, 2 expected): 1.6 fold; glycine concentration at which full-length transcripts are favored ([2]; added to transcription mixture): > 10 µM; Hill coefficient of best-fit curve to transcription data ([2]; yield of full-length transcripts versus glycine): 1.4; loss of affinity in the unaltered aptamer I [5]: more than 1,000 fold

Source: patent US20090117545A1 (priority 2004, published 2009)
